Results taken from PubChem BioAssay (NCI).
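Values below derive from 48-hour exposures of cells grown in 96-well plates, with endpoints linearly interpolated between the two concentrations bracketing the appropriate inhibition level. The concentration for full growth arrest is given as TGI.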

Columns and labels:
Assay in all cases: DTP human tumour cell line panel, 48 h
786-0 renal = system: 786-0 renal
A498 renal = system: A498 renal
A549 NSCLC = system: A549 NSCLC
ACHN renal = system: ACHN renal
CAKI-1 renal = system: CAKI-1 renal
CCRF-CEM leukemia = system: CCRF-CEM leukemia
COLO 205 colon = system: COLO 205 colon
DU-145 prostate = system: DU-145 prostate
EKVX NSCLC = system: EKVX NSCLC
HCT-116 colon = system: HCT-116 colon
HCT-15 colon = system: HCT-15 colon
HL-60(TB) leukemia = system: HL-60(TB) leukemia
HOP-62 NSCLC = system: HOP-62 NSCLC
HOP-92 NSCLC = system: HOP-92 NSCLC
HS 578T breast = system: HS 578T breast
HT29 colon = system: HT29 colon
IGROV1 ovarian = system: IGROV1 ovarian
K-562 leukemia = system: K-562 leukemia
KM12 colon = system: KM12 colon
LOX IMVI melanoma = system: LOX IMVI melanoma
M14 melanoma = system: M14 melanoma
MALME-3M melanoma = system: MALME-3M melanoma
MCF7 breast = system: MCF7 breast
MDA-MB-231 breast = system: MDA-MB-231 breast
MDA-MB-435 = system: MDA-MB-435
MDA-N = system: MDA-N
MOLT-4 leukemia = system: MOLT-4 leukemia
NCI-H226 lung = system: NCI-H226 lung
NCI-H23 lung = system: NCI-H23 lung
NCI-H460 lung = system: NCI-H460 lung
NCI-H522 lung = system: NCI-H522 lung
NCI/ADR-RES ovarian = system: NCI/ADR-RES ovarian
OVCAR-3 ovarian = system: OVCAR-3 ovarian
OVCAR-4 ovarian = system: OVCAR-4 ovarian
OVCAR-5 ovarian = system: OVCAR-5 ovarian
OVCAR-8 ovarian = system: OVCAR-8 ovarian
PC-3 prostate = system: PC-3 prostate
RPMI-8226 leukemia = system: RPMI-8226 leukemia
RXF 393 renal = system: RXF 393 renal
SF-268 CNS = system: SF-268 CNS
SF-295 CNS = system: SF-295 CNS
SF-539 CNS = system: SF-539 CNS
SK-MEL-2 melanoma = system: SK-MEL-2 melanoma
SK-MEL-28 melanoma = system: SK-MEL-28 melanoma
SK-MEL-5 melanoma = system: SK-MEL-5 melanoma
SK-OV-3 ovarian = system: SK-OV-3 ovarian
SN12C renal = system: SN12C renal
SNB-19 CNS = system: SNB-19 CNS
SNB-75 CNS = system: SNB-75 CNS
SR leukemia = system: SR leukemia
SW-620 colon = system: SW-620 colon
TK-10 renal = system: TK-10 renal
U251 CNS = system: U251 CNS
UACC-257 melanoma = system: UACC-257 melanoma
UACC-62 melanoma = system: UACC-62 melanoma
HCC-2998 colon = system: HCC-2998 colon
T-47D breast = system: T-47D breast
UO-31 renal = system: UO-31 renal

With `CCN(CC)C(=S)N=Nc1c(O)[nH]c2ccccc12` the TGI (786-0 renal) was 11.4 µM, the TGI (A498 renal) was 3.64 µM and the TGI (A549 NSCLC) was 11.9 µM. The TGI (ACHN renal) was 10.1 µM, the TGI (CAKI-1 renal) was 5.98 µM and the TGI (CCRF-CEM leukemia) was 5.75 µM. For the same compound, the TGI (COLO 205 colon) was 11.6 µM, the TGI (DU-145 prostate) was over 100 µM and the TGI (EKVX NSCLC) was 11.5 µM. For the same compound, the TGI (HCT-116 colon) was 2.84 µM, the TGI (HCT-15 colon) was 19.6 µM and the TGI (HL-60(TB) leukemia) was 3.7 µM. For the same compound, the TGI (HOP-62 NSCLC) was 12.6 µM, the TGI (HOP-92 NSCLC) was 8.52 µM and the TGI (HS 578T breast) was 69.5 µM. For the same compound, the TGI (HT29 colon) was 14.8 µM, the TGI (IGROV1 ovarian) was 2.42 µM and the TGI (K-562 leukemia) was 5.31 µM. For the same compound, the TGI (KM12 colon) was 10.5 µM, the TGI (LOX IMVI melanoma) was 13.4 µM and the TGI (M14 melanoma) was 2.94 µM. It also gave a TGI (MALME-3M melanoma) of 10.4 µM, a TGI (MCF7 breast) of 2.37 µM and a TGI (MDA-MB-231 breast) of 8.02 µM. It also gave a TGI (MDA-MB-435) of 18.8 µM, a TGI (MDA-N) of 16.5 µM and a TGI (MOLT-4 leukemia) of 2.93 µM. It also gave a TGI (NCI-H226 lung) of 8.2 µM, a TGI (NCI-H23 lung) of 14.6 µM and a TGI (NCI-H460 lung) of 3.08 µM. The TGI (NCI-H522 lung) was 14.4 µM, the TGI (NCI/ADR-RES ovarian) was 0.759 µM and the TGI (OVCAR-3 ovarian) was 2.12 µM. The TGI (OVCAR-4 ovarian) was 11.9 µM, the TGI (OVCAR-5 ovarian) was 25.1 µM and the TGI (OVCAR-8 ovarian) was 13 µM. For the same compound, the TGI (PC-3 prostate) was 13.9 µM, the TGI (RPMI-8226 leukemia) was 4.07 µM and the TGI (RXF 393 renal) was 7.15 µM. The TGI (SF-268 CNS) was over 100 µM, the TGI (SF-295 CNS) was 11.5 µM and the TGI (SF-539 CNS) was 2.4 µM. For the same compound, the TGI (SK-MEL-2 melanoma) was 23.8 µM, the TGI (SK-MEL-28 melanoma) was over 100 µM and the TGI (SK-MEL-5 melanoma) was 2.41 µM. The TGI (SK-OV-3 ovarian) was 12.6 µM, the TGI (SN12C renal) was 14.2 µM and the TGI (SNB-19 CNS) was 16 µM. For the same compound, the TGI (SNB-75 CNS) was 11.2 µM, the TGI (SR leukemia) was 4.91 µM and the TGI (SW-620 colon) was 19.7 µM. The TGI (TK-10 renal) was 5.07 µM, the TGI (U251 CNS) was 13 µM and the TGI (UACC-257 melanoma) was 12.3 µM. The TGI (UACC-62 melanoma) was 6.38 µM.

Compound `CC(C)CCc1n[nH]c(=O)n1/N=C\c1ccccc1` has a TGI (786-0 renal) of over 100 µM, a TGI (A498 renal) of over 100 µM and a TGI (A549 NSCLC) of over 100 µM. The TGI (ACHN renal) was over 100 µM, the TGI (CCRF-CEM leukemia) was over 100 µM and the TGI (COLO 205 colon) was over 100 µM. The TGI (DU-145 prostate) was over 100 µM, the TGI (EKVX NSCLC) was over 100 µM and the TGI (HCC-2998 colon) was over 100 µM. It also gave a TGI (HCT-116 colon) of over 100 µM, a TGI (HCT-15 colon) of over 100 µM and a TGI (HOP-62 NSCLC) of over 100 µM. For the same compound, the TGI (HOP-92 NSCLC) was over 100 µM, the TGI (HS 578T breast) was over 100 µM and the TGI (HT29 colon) was over 100 µM. For the same compound, the TGI (IGROV1 ovarian) was over 100 µM, the TGI (K-562 leukemia) was over 100 µM and the TGI (KM12 colon) was over 100 µM. It also gave a TGI (LOX IMVI melanoma) of over 100 µM, a TGI (M14 melanoma) of over 100 µM and a TGI (MALME-3M melanoma) of over 100 µM. The TGI (MDA-MB-231 breast) was over 100 µM, the TGI (MDA-MB-435) was over 100 µM and the TGI (MDA-N) was over 100 µM. The TGI (MOLT-4 leukemia) was over 100 µM, the TGI (NCI-H226 lung) was over 100 µM and the TGI (NCI-H23 lung) was over 100 µM. It also gave a TGI (NCI-H460 lung) of over 100 µM, a TGI (NCI-H522 lung) of over 100 µM and a TGI (NCI/ADR-RES ovarian) of over 100 µM. It also gave a TGI (OVCAR-3 ovarian) of over 100 µM, a TGI (OVCAR-4 ovarian) of over 100 µM and a TGI (OVCAR-5 ovarian) of over 100 µM. For the same compound, the TGI (OVCAR-8 ovarian) was over 100 µM, the TGI (RXF 393 renal) was over 100 µM and the TGI (SF-268 CNS) was over 100 µM. For the same compound, the TGI (SF-295 CNS) was over 100 µM, the TGI (SF-539 CNS) was over 100 µM and the TGI (SK-MEL-2 melanoma) was over 100 µM. It also gave a TGI (SK-MEL-28 melanoma) of over 100 µM, a TGI (SK-MEL-5 melanoma) of over 100 µM and a TGI (SK-OV-3 ovarian) of over 100 µM. The TGI (SN12C renal) was over 100 µM, the TGI (SNB-19 CNS) was over 100 µM and the TGI (SNB-75 CNS) was over 100 µM. It also gave a TGI (SW-620 colon) of over 100 µM, a TGI (T-47D breast) of over 100 µM and a TGI (TK-10 renal) of over 100 µM. For the same compound, the TGI (U251 CNS) was over 100 µM, the TGI (UACC-257 melanoma) was over 100 µM and the TGI (UACC-62 melanoma) was over 100 µM. For the same compound, the TGI (UO-31 renal) was 86.1 µM.
